Each molecule was assayed against T1, E297G variant of human ABCB11 (Homo sapiens, UniProt O95342, E297G) (assay: ABCB11 E297G expression assay (HiBit lytic luminescence) in HEK-293/E297G cells). Conditions: increase in expression of ABCB11 E297G, 24 hours treatment, top concentration 25 μM, class also includes Emax criterion, read-out: BSEP EC50.
T1 construct: expressed in transfected cells
Format: cell-based
Description: To assess activity against ABCB11 E297G, the compounds were screened in an assay measuring protein expression, using cells transfected with cDNA encoding HiBit-tagged ABCB11 E297G.
Here we describe an assay for measuring the expression of the E297G variant of human ABCB11 (henceforth referred to as ABCB11 E297G) and the use of this assay to measure the efficacy of compounds to increase the expression of ABCB11 E297G. The assay was designed to characterize the efficacy and potency of compounds to increase the expression of ABCB11 E297G by calculating an Emax and EC50 value. HEK-293 cells stably expressing E297G (HEK-293/E297G cells) were used for this assay and were maintained at 37° C. (5% CO2, humidified) in Eagle's Minimum Essential Medium supplemented with 10% fetal bovine serum and 1% Glutamine. For the assay, the HEK-293/E297G cells were seeded in black/transparent-bottom 384-well plates at 20,000 cells/well in 22.5 μl Opti-MEM (Thermofisher, product #11058021) media supplemented with 2.7% of fetal bovine serum (Gibco, product #16000044) and allowed to settle for 4 hours at 37° C. (5% CO2, humidified). Compound serial dilutions are prepared in Opti-MEM as four times (4×) the final concentration and using a dilution factor of 2.15. After the four h incubation period, 7.5 μL of the 4× dilutions are transferred to the assay plate.
Dose response curves include eight doses with the top final concentration at 25 μM in 0.75% DMSO. Liquid handling is performed in a robotic device equipped with a 384-tip head (Analytik Jena—CyBio Vario). After addition of compound treatment, cells are incubated for 24 hours at 37° C. (5% CO2, humidified). After the 24-hour treatment, plates are allowed to equilibrate for 30 minutes at room temperature. Using the Analytik Jena—CyBio Vario instrument, the volume of each well is reduced to 15 μl and 15 μl of HiBit lytic assay reagent (Promega, product #N3040), which is prepared according to manufacturer's instructions, is added back to each well. The plates are incubated at room temperature for additional 30 minutes and luminescent signal is acquired using a Hamamatsu FDSS 7000 EX plate-reader (20 reads, exposure time 0.2 seconds, gain 200).
Results are presented below in Table 3 for ABCB11 E297G.

T1 sequence (O95342 whole entry E297G): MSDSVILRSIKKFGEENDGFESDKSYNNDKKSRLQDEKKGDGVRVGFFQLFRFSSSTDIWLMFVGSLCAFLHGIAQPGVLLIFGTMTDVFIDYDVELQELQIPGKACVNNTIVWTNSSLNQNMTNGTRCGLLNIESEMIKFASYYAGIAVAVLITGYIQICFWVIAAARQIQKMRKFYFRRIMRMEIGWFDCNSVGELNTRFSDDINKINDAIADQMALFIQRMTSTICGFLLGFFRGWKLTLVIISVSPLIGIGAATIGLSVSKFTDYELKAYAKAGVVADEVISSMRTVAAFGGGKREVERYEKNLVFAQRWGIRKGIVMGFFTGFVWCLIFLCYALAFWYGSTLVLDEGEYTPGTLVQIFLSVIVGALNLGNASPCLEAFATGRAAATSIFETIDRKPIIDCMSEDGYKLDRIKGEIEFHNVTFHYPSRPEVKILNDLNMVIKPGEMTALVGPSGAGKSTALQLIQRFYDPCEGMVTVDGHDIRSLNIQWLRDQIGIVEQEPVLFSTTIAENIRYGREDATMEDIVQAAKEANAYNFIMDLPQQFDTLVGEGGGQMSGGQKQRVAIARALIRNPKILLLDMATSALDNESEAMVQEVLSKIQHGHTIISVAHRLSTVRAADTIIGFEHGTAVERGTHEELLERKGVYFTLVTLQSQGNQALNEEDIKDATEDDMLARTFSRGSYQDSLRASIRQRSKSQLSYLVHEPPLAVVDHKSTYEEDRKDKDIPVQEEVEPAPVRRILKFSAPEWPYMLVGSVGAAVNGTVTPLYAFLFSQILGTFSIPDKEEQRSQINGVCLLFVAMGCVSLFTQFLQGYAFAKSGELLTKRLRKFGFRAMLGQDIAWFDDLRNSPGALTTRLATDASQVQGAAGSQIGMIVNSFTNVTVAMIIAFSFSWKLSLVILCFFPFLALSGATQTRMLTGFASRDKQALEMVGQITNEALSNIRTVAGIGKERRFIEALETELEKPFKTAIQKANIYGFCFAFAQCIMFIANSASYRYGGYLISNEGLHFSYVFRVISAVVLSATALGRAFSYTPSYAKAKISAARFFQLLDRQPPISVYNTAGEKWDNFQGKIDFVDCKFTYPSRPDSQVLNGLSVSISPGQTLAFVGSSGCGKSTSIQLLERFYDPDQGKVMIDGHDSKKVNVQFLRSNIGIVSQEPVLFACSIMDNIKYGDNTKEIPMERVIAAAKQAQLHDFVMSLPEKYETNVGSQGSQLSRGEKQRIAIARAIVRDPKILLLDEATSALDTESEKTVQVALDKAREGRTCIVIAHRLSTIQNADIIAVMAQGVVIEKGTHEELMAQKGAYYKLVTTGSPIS

| Structure (SMILES) | EC50 [µM] |
| --- | --- |
| Cc1ccc(NC(=O)[C@@H]2CCCN2C(C)C)nc1-c1cn(C)c(=O)c2[nH]ccc12 [Compound I-2] | 2.5 to 10 |
| Cc1ccc(NC(=O)c2cnn(-c3ccccc3F)c2)nc1-c1cn(C)c(=O)c2[nH]ccc12 [Compound I-3] | > 25 |
| Cc1ccc(NC(=O)c2cnn(C3CCOCC3)c2)nc1-c1cn(C)c(=O)c2[nH]ccc12 [Compound I-21] | 10 to 25 |
| Cc1ccc(NC(=O)c2cc3ccc(F)cc3n2C)nc1-c1cn(C)c(=O)c2[nH]ccc12 [Compound I-14] | > 25 |
| Cc1ccc(NC(=O)c2cnc(-c3ccccn3)nc2)nc1-c1cn(C)c(=O)c2[nH]ccc12 [Compound I-1] | 2.5 to 10 |
| Cc1ccc(NC(=O)c2cc(CC(C)C)nn2C)nc1-c1cn(C)c(=O)c2[nH]ccc12 [Compound I-8] | < 2.5 |
| Cc1ccc(NC(=O)C2CCN(S(C)(=O)=O)CC2)nc1-c1cn(C)c(=O)c2[nH]ccc12 [Compound I-13] | 10 to 25 |
| Cc1cnc2ncc(C(=O)Nc3ccc(C)c(-c4cn(C)c(=O)c5[nH]ccc45)n3)n2c1 [Compound I-10] | > 25 |
| Cc1ccc(NC(=O)c2cnn(-c3ccccc3)c2C)nc1-c1cn(C)c(=O)c2[nH]ccc12 [Compound I-9] | > 25 |
| Cc1ccc(NC(=O)C2CCCc3ccccc32)nc1-c1cn(C)c(=O)c2[nH]ccc12 (centres unmarked) [Compound I-176] | < 2.5 |
| Cc1ccc(NC(=O)C2CCc3ccccc32)nc1-c1cn(C)c(=O)c2[nH]ccc12 (centres unmarked) [Compound I-177] | 2.5 to 10 |
| Cc1ccc(NC(=O)C2CCN(c3ccccn3)CC2)nc1-c1cn(C)c(=O)c2[nH]ccc12 [Compound I-12] | 2.5 to 10 |
| Cc1ccc(NC(=O)c2coc(N3CCOCC3)n2)nc1-c1cn(C)c(=O)c2[nH]ccc12 [Compound I-22] | 2.5 to 10 |
| Cc1ccc(NC(=O)c2ccc3cnccc3c2)nc1-c1cn(C)c(=O)c2[nH]ccc12 [Compound I-26] | 2.5 to 10 |
| Cc1ccc(NC(=O)c2ccncn2)nc1-c1cn(C)c(=O)c2[nH]ccc12 [Compound I-24] | 10 to 25 |
| Cc1ccc(NC(=O)c2cccc3c2OC(C)(C)CC3)nc1-c1cn(C)c(=O)c2[nH]ccc12 [Compound I-6] | 2.5 to 10 |
| Cc1ccc(NC(=O)c2ccc3c(c2)OCCN3C)nc1-c1cn(C)c(=O)c2[nH]ccc12 [Compound I-15] | 2.5 to 10 |
| Cc1ccc(NC(=O)C2CCC(F)(F)C2)nc1-c1cn(C)c(=O)c2[nH]ccc12 (centres unmarked) [Compound I-17] | < 2.5 |
| CCOC(=O)N1CCC(C(=O)Nc2ccc(C)c(-c3cn(C)c(=O)c4[nH]ccc34)n2)CC1 [Compound I-25] | 2.5 to 10 |
| Cc1ccc(NC(=O)c2ccc(C(F)(F)F)nc2)nc1-c1cn(C)c(=O)c2[nH]ccc12 [Compound I-5] | 2.5 to 10 |
| Cc1ccc(NC(=O)c2nc3c(s2)CN(C)CC3)nc1-c1cn(C)c(=O)c2[nH]ccc12 [Compound I-16] | 10 to 25 |
| Cc1ccc(NC(=O)c2cc3n(n2)CCCC3)nc1-c1cn(C)c(=O)c2[nH]ccc12 [Compound I-27] | 2.5 to 10 |
| Cc1ccc(NC(=O)c2ccc3c(ccn3C)c2)nc1-c1cn(C)c(=O)c2[nH]ccc12 [Compound I-20] | 2.5 to 10 |
| Cc1ccc(NC(=O)c2nc(-c3ccccc3)ns2)nc1-c1cn(C)c(=O)c2[nH]ccc12 [Compound I-4] | > 25 |
| Cc1ccc(NC(=O)c2ccc3c(c2)n(C)c(=O)n3C)nc1-c1cn(C)c(=O)c2[nH]ccc12 [Compound I-18] | > 25 |
| Cc1ccc(NC(=O)c2cnc(C(F)(F)F)s2)nc1-c1cn(C)c(=O)c2[nH]ccc12 [Compound I-7] | > 25 |
| Cc1ccc(NC(=O)C2CCN(c3ccccc3)CC2)nc1-c1cn(C)c(=O)c2[nH]ccc12 [Compound I-11] | < 2.5 |
| Cc1ccc(NC(=O)c2cc(-c3ccccc3)no2)nc1-c1cn(C)c(=O)c2[nH]ccc12 [Compound I-19] | > 25 |
| Cc1ccc(NC(=O)c2ccc(-n3cccn3)cc2)nc1-c1cn(C)c(=O)c2[nH]ccc12 [Compound I-23] | > 25 |

Source: patent US20260092062A1, “PYRIDINE CARBOXAMIDE COMPOUNDS AND THEIR USE IN TREATING MEDICAL CONDITIONS” (Rectify Pharmaceuticals, Inc., priority 2022, published 2026)
